Two compounds from patent US10849990B2 (priority 2018, dated 2020) can be followed below.

Test [1] deals with SPR-KO mice. The following applies: mouse, in vivo.
The subject of a further test is VL neurons. Briefly: In vivo spike recording of spontaneous rebound firing in SPR-KO mice. The following applies: mouse.
Test [2] deals with SPR-KO mice. Briefly: Tremor test in SPR-KO mice. The conditions noted are these: mouse, in vivo.

For `N[C@@H](Cc1ccc(O)c(O)c1)C(=O)O` [L-DOPA], in the test with SPR-KO mice [1], the “motor problems (akinesia, gait disturbance, tremor)” value is “ameliorated”. Regarding `CCC1(C)CC(=O)NC1=O` (stereo not drawn) [ethosuximide], in the test with VL neurons, the “spontaneous rebound firing of VL neurons” value is listed as “reduced spontaneous rebound firing”. Moreover, the “abnormal motor functions (tremor score)” value in the test on SPR-KO mice [2] is listed as “ameliorated”.
